The numbers were not newly measured in patent US9327003B2, “Use of foti to enhance stem cell mobilization and proliferation” (Stemtech International, Inc., priority 2011, dated 2016), which cites them from elsewhere.

The conditions of data set [1]: including hemorrhaging, rupturing of the spleen, bloody sputum, bone disorders.
In another data set the test system is circulating HSC. The following applies: injection / administration.

For the molecule `OC[C@H]1O[C@@H](Oc2c(O)cc(O)cc2C=Cc2ccc(O)cc2)[C@H](O)[C@@H](O)[C@@H]1O` [2,3,5,4′-tetrahydroxystilbene-2-O-β-d-glycoside], the “stability in aqueous solutions” value was “readily degrade in aqueous solutions in a temperature and pH dependent manner”.

In the case of `c1cc(CN2CCCNCCNCCCNCC2)ccc1CN1CCCNCCNCCCNCC1` [AMD3100, reference compound], the side effects entry in data set [1] is listed as “significant side effects”.

Regarding “G-CSF: granulocyte colony-stimulating factor or recombinant forms thereof”, in the data set with circulating HSC, the “time course of elevating circulating HSC numbers” value is on record as “requires days to achieve peak circulating HSC numbers”.

For IL-8: interleukin-8, the “time course of elevating circulating HSC numbers” value with circulating HSC was “acts only within minutes and has a short-lived effect”.

B1: G-CSF: granulocyte colony-stimulating factor or recombinant forms thereof (protein, UniProt P09919 31-207, looked up)
Granulocyte …: TPLGPASSLPQSFLLKCLEQVRKIQGDGAALQEKLVSECATYKLCHPEELVLLGHSLGIPWAPLSSCPSQALQLAGCLSQLHSGLFLYQGLLQALEGISPELGPTLDTLQLDVADFATTIWQQMEELGMAPALQPTQGAMPAFASAFQRRAGGVLVASHLQSFLEVSYRVLRHLAQP
As to B1, the side effects result in data set [1] is “significant side effects”.
